From patent US8563729B2, “Thienopyridone derivatives as AMP-activated protein kinase (AMPK) activators” (Merck Patent GmbH, priority 2008, dated 2013)

Columns and labels:
H-2 Kb cells = assay: Glucose uptake in H-2 Kb cells (in vitro cellular test); format: cell-based, mouse; settings: H-2 Kb cells differentiated in muscle, 4 hours incubation, 2-deoxy-D-[1,2 3H] glucose uptake 10 min
Summary of the method: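 H-2 Kb tsA58 mouse cells were differentiated to muscle at 37° C without interferon-γ for 3 days, then exposed to compound for 4 h in 1 g/l glucose DMEM. Uptake of 3H-2-deoxyglucose over 10 min was measured by scintillation. Activity was taken as the compound concentration matching or exceeding uptake with insulin (170 nM), scored ≦10 or >10 micro Molar.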

[1] = target: T1, AMPK protein (recombinant α1β1γ2) (Homo sapiens, UniProt Q13131+Q9Y478); assay: AMPK enzymatic activity (Delfia, AMARA peptide substrate); format: biochemical; settings: compound 30 μM vs AMP 30 μM; 125 μM ATP; ratio 90% or higher = direct activator
T1 construct: made in house; host or cells: E. coli
Summary of the method: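 Human α1β1γ2 AMPK expressed in E. coli, reactivated in vitro by LKB1, assayed in 50 mM Hepes pH 7.4 with 125 μM ATP and AMARA peptide for 30 min at room temperature; phosphorylation detected by Delfia anti-phosphoserine antibody. Activity = % of basal control at 30 μM compound relative to that of 30 μM AMP.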

T1 sequence (Q13131 whole entry): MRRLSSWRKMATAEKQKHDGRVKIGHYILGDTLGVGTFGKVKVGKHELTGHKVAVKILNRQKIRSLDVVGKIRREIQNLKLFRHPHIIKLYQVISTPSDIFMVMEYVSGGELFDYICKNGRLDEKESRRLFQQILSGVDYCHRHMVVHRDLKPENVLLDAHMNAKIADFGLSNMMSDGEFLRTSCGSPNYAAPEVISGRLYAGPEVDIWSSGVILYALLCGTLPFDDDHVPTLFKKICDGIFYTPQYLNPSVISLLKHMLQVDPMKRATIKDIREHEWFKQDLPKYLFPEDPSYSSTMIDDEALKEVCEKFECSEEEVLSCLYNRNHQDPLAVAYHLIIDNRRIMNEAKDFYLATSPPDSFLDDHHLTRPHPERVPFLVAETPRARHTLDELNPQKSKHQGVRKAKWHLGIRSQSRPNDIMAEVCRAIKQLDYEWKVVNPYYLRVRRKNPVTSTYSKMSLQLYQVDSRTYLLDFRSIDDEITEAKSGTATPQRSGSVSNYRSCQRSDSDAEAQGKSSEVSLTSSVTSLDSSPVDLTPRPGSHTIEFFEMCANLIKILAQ
T1 sequence (Q9Y478 whole entry): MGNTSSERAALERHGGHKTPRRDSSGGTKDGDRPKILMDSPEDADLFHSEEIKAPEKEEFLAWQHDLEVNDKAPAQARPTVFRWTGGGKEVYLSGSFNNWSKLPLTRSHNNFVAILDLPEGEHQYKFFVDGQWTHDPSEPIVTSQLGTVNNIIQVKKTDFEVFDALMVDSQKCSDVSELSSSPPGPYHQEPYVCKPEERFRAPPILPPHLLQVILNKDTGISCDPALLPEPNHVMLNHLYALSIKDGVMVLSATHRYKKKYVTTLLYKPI
T1 sequence (Q9UGJ0 whole entry partner): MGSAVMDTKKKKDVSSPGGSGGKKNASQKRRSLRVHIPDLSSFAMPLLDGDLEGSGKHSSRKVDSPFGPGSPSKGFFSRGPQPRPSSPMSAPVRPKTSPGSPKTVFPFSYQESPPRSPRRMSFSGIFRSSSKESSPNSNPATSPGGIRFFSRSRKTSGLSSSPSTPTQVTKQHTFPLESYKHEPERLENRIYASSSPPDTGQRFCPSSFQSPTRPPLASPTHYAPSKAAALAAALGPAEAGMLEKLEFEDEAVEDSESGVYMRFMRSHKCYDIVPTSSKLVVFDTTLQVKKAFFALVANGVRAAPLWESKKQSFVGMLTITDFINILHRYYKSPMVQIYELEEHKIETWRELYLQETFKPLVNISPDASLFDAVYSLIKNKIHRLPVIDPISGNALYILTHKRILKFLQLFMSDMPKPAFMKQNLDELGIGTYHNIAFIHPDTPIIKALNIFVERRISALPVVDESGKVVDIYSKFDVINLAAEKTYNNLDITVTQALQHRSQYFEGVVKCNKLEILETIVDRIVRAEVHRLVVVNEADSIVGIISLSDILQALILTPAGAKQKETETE

SMILES | Activity (table III): Concentration of compound (I) for a glucose uptake equal or higher to glucose uptake induced by insulin (170 nM) (H-2 Kb cells) | activity: Ratio between the % of control (basal activity) of compound of formula (I) at 30 μM and the % of control (basal activity) of AMP at 30 μM [1]
O=c1[nH]c2sc(Cl)c(-c3ccc(Cl)cc3)c2c(O)c1-c1ccccc1 [Compound 178] | ++ (^++ or **concentration of compound (I) ≦10 micro Molar) | 138%
Cc1ccc(-c2c(O)c3c(-c4ccc(C)cc4O)c(Cl)sc3[nH]c2=O)cc1 [Compound 194] | ++ (^++ or **concentration of compound (I) ≦10 micro Molar) | 183%
COc1ccc(-c2c(O)c3c(-c4ccccc4)csc3[nH]c2=O)cc1 [Compound 19] | * (^+ or *concentration of compound (I) >10 micro Molar) | 96%
O=c1[nH]c2sc(Cl)c(-c3ccc(O)cc3)c2c(O)c1-c1ccccc1 [Compound 138] | ** (^++ or **concentration of compound (I) ≦10 micro Molar) | 114%
N#Cc1cccc(-c2c(O)c3c(-c4ccc(F)cc4)c(Cl)sc3[nH]c2=O)c1 [Compound 131] | * (^+ or *concentration of compound (I) >10 micro Molar) | 331%
O=c1[nH]c2sc(Cl)c(-c3ccc(F)c(F)c3)c2c(O)c1-c1ccccc1 [Compound 100] | ** (^++ or **concentration of compound (I) ≦10 micro Molar) | 103%
O=c1[nH]c2sc(Cl)c(-c3ccccc3)c2c(O)c1-c1cccnc1 [Compound 166] | + (^+ or *concentration of compound (I) >10 micro Molar) | 225%
Cc1ccc(-c2c(Cl)sc3[nH]c(=O)c(-c4ccccc4)c(O)c23)c(O)c1C [Compound 202] | ++ (^++ or **concentration of compound (I) ≦10 micro Molar) | 305%
COc1cccc(-c2c(O)c3c(-c4ccccc4)csc3[nH]c2=O)c1 [Compound 23] | * (^+ or *concentration of compound (I) >10 micro Molar) | 202%
O=c1[nH]c2sc(Cl)c(-c3ccccc3)c2c(O)c1-c1ccc(F)cc1 [Compound 172] | + (^+ or *concentration of compound (I) >10 micro Molar) | 153%
Cc1ccc(-c2csc3[nH]c(=O)c(-c4ccccc4)c(O)c23)c(O)c1F [Compound 198] | + (^+ or *concentration of compound (I) >10 micro Molar) | 363%
COc1ccc(-c2c(O)c3c(-c4ccccc4)c(C)sc3[nH]c2=O)cc1 [Compound 13] | * (^+ or *concentration of compound (I) >10 micro Molar) | 126%
O=c1[nH]c2sc(Cl)c(-c3ccccc3)c2c(O)c1-c1ccccc1F [Compound 165] | + (^+ or *concentration of compound (I) >10 micro Molar) | 238%
Cc1ccc(-c2c(O)c3c(-c4ccc5ccccc5c4O)c(Cl)sc3[nH]c2=O)cc1 [Compound 186] | ++ (^++ or **concentration of compound (I) ≦10 micro Molar) | 192%
COc1ccc(-c2c(O)c3c(-c4ccccc4)c(Cl)sc3[nH]c2=O)cc1OC [Compound 177] | ++ (^++ or **concentration of compound (I) ≦10 micro Molar) | 234%
O=c1[nH]c2scc(-c3ccc4ccccc4c3)c2c(O)c1-c1ccccc1 [Compound 33] | * (^+ or *concentration of compound (I) >10 micro Molar) | 201%
Cc1ccc(-c2csc3[nH]c(=O)c(-c4ccccc4)c(O)c23)cc1 [Compound 35] | ** (^++ or **concentration of compound (I) ≦10 micro Molar) | 126%
O=c1[nH]c2sc(Cl)c(-c3cc(F)c(F)cc3O)c2c(O)c1-c1ccccc1 [Compound 193] | + (^+ or *concentration of compound (I) >10 micro Molar) | 139%
Cc1ccc(-c2c(Cl)sc3[nH]c(=O)c(-c4ccccc4)c(O)c23)c(O)c1F [Compound 210] | ++ (^++ or **concentration of compound (I) ≦10 micro Molar) | 181%
Cc1ccc(-c2c(O)c3c(-c4ccccc4)c(Cl)sc3[nH]c2=O)cc1 [Compound 174] | + (^+ or *concentration of compound (I) >10 micro Molar) | 245%
COc1cccc(-c2c(Cl)sc3[nH]c(=O)c(-c4ccccc4)c(O)c23)c1 [Compound 128] | * (^+ or *concentration of compound (I) >10 micro Molar) | 181%
COc1ccc(-c2c(Cl)sc3[nH]c(=O)c(-c4ccccc4)c(O)c23)c(F)c1 [Compound 115] | ** (^++ or **concentration of compound (I) ≦10 micro Molar) | 118%
O=c1[nH]c2sc(Br)c(-c3ccccc3)c2c(O)c1-c1ccccc1 [Compound 161] | ** (^++ or **concentration of compound (I) ≦10 micro Molar) | 113%
Cc1cccc(-c2c(O)c3c(-c4ccccc4)c(Cl)sc3[nH]c2=O)c1 [Compound 176] | ++ (^++ or **concentration of compound (I) ≦10 micro Molar) | 245%
COc1cccc(-c2c(O)c3c(-c4ccccc4)c(C)sc3[nH]c2=O)c1 [Compound 15] | * (^+ or *concentration of compound (I) >10 micro Molar) | 181%
Cc1ccc(-c2c(Cl)sc3[nH]c(=O)c(-c4ccccc4)c(O)c23)c(O)c1 [Compound 104] | * (^+ or *concentration of compound (I) >10 micro Molar) | 236%
O=c1[nH]c2sc(Cl)c(-c3ccccc3)c2c(O)c1-c1ccccc1 [Compound 162] | ** (^++ or **concentration of compound (I) ≦10 micro Molar) | 107%
COc1ccc(-c2c(O)c3c(-c4ccc(F)cc4O)c(Cl)sc3[nH]c2=O)cc1 [Compound 212] | + (^+ or *concentration of compound (I) >10 micro Molar) | 183%
